# What was measured:
# individuals [1] = settings: oxymetazoline 0.050% in over-the-counter sprays, days of use; cited from earlier work
# individuals [2] = assay: Long-term nasal use: rebound effect (rebound congestion); format: in vivo, human; settings: oxymetazoline or salts at less than 0.050%, preferably 0.025%
# Source text: In an embodiment of the nasal spray composition, the nasal spray composition may include effective amounts of a decongestant or vasoconstrictor, such as oxymetazoline, or pharmaceutical acceptable salts thereof, such as oxymetazoline hydrochloride. In an illustrative embodiment, the effective amount of oxymetazoline or pharmaceutical acceptable salts thereof, is less than 0.050%, between less than 0.050% and 0.010%, and more preferably, 0.025% or about 0.025%. Oxymetazoline, a member of the imidazole group, binds and activates alpha-2 adrenergic receptors. Upon nasal administration, imidazole group compounds constrict the arterioles in the nose, resulting in decreasing congestion. Concentrations of oxymetazoline (0.050%) utilized in the over-the-counter sprays have been proven to return symptoms to a degree stronger than present initially upon discontinuation of the drug. This is called the rebound effect, or rebound congestion (rhinitis medicamentosa, chemical rhinitis, or nasal spray addiction). The rebound effect may occur in as early as 3 days of use, but typically occurs in 3-5 days and sometimes 5-7 days of use. […] As such, the nasal spray according to the present invention can be used for a time period greater than 5-7 days without the risk of suffering from any rebound effect. […]
compound,measurement,setting,value
Cc1cc(C(C)(C)C)c(O)c(C)c1CC1=NCCN1 [oxymetazoline],rebound effect: earliest onset (may occur in as early as),individuals [1],3 days
same,rebound effect: onset sometimes,individuals [1],5 to 7 days
same,rebound effect: typical onset,individuals [1],3 to 5 days
same,effect on snoring or sleep apnea and rebound effect,individuals [2],effective at reducing or minimizing snoring or sleep apnea while preventing the rebound effect

# — patent publication US20230072392A1, “NASAL SPRAY” (BREATHE BETTER LLC, priority 2021, published 2023)
